Patent US9260417B2, “Therapeutic methods and compositions involving allosteric kinase inhibition” (AMITECH THERAPEUTIC SOLUTIONS, INC., priority 2010, dated 2016)

Assays:
Assay in all cases: In vitro kinase panel (SelectScreen)
Assay type in all cases: biochemical
PAK2 = PAK2 (Homo sapiens (Human), UniProt Q13177)
Excerpt: (§1) In vitro kinase screen and competitive binding assay. Sorafenib as well as test compounds were submitted to Invitrogen and screened using their SelectScreen™ Profiling Service.

PKC delta = PKC delta (Homo sapiens (Human), UniProt Q05655)
Chain of PKC delta (Q05655 whole entry): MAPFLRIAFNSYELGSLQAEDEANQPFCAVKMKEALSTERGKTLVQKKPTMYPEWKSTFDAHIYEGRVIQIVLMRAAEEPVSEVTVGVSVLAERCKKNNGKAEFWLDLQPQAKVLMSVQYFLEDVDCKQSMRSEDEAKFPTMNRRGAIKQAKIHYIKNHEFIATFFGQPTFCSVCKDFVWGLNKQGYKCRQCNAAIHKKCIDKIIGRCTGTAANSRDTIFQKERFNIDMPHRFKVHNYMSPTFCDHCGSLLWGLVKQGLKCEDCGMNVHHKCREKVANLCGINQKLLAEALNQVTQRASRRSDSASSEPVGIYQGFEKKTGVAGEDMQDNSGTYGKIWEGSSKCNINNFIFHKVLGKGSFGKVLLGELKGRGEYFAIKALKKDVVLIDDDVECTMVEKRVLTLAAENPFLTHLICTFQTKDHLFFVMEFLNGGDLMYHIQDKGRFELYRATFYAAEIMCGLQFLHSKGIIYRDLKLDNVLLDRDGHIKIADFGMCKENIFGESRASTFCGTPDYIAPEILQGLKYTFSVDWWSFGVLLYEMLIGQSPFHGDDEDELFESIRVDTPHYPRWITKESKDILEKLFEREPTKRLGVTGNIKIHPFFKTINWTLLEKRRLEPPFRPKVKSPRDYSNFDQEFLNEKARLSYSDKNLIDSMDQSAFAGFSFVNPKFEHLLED
Excerpt: as §1

PKC beta II = PKC beta II (Homo sapiens (Human), UniProt P05771)
Excerpt: as §1

PKC gamma = PKC gamma (Homo sapiens (Human), UniProt P05129)
Excerpt: as §1

AKT1 = AKT1 (Homo sapiens (Human), UniProt P31749)
Excerpt: as §1

CRAF Y340D Y341D = CRAF Y340D Y341D (Homo sapiens (Human), UniProt P04049, Y340D/Y341D)
Excerpt: as §1

KIT = KIT (Homo sapiens (Human), UniProt P10721)
Chain of KIT (P10721 26-976): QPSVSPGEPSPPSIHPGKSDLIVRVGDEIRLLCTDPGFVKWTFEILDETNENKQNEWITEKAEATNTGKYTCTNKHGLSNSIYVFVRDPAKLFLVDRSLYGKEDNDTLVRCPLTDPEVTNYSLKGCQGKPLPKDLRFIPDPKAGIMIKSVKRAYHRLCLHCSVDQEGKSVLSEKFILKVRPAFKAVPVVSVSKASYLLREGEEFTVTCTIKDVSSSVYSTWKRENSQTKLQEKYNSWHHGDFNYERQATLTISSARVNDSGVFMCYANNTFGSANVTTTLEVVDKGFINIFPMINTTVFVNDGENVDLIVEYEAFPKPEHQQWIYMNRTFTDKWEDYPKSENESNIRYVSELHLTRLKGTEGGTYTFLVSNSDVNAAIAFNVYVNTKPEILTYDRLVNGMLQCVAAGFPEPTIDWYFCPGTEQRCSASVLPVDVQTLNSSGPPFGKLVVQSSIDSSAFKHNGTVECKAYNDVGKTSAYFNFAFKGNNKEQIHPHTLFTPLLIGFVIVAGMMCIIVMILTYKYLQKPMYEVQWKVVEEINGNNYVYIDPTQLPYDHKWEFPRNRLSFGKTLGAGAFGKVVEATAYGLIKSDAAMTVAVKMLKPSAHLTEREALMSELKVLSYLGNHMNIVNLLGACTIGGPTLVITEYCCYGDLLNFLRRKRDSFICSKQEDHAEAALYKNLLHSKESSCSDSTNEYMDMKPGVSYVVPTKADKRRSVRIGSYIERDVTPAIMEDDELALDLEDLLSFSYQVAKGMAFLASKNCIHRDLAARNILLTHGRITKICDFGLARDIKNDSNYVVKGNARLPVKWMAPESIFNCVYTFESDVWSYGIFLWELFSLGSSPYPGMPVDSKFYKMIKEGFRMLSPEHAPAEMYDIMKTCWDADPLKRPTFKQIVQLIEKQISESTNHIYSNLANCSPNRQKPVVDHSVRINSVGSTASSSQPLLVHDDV
Excerpt: as §1

FGFR1 = FGFR1 (Homo sapiens (Human), UniProt P11362)
Chain of FGFR1 (P11362 22-822): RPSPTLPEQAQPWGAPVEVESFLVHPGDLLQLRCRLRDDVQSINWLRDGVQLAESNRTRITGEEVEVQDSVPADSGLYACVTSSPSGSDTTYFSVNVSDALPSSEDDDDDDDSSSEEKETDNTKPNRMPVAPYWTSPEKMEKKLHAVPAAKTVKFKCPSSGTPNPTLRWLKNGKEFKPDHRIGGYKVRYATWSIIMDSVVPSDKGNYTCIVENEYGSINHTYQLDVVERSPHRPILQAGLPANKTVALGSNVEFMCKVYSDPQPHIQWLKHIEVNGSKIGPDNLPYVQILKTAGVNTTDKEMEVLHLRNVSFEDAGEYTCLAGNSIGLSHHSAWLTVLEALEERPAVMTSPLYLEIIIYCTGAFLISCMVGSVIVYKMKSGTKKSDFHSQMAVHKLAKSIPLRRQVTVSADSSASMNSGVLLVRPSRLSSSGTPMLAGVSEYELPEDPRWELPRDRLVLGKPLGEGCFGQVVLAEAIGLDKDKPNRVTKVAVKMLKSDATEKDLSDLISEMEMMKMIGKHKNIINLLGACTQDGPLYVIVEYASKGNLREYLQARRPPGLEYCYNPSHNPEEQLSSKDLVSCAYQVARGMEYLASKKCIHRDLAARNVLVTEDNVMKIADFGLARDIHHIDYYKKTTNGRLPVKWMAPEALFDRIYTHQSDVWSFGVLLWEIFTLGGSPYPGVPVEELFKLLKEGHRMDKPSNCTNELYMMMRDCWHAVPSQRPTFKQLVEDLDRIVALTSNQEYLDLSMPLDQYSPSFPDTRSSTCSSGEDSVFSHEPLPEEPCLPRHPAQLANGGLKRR
Excerpt: as §1

FGFR2 = FGFR2 (Homo sapiens (Human), UniProt P21802)
Excerpt: as §1

CK2 alpha 1 = CK2 alpha 1 (Homo sapiens (Human), UniProt P68400)
Excerpt: as §1

IGF1R = IGF1R (Homo sapiens (Human), UniProt P08069)
Excerpt: as §1

MEK1 = MEK1 (Homo sapiens (Human), UniProt Q02750)
Chain of MEK1 (Q02750 whole entry): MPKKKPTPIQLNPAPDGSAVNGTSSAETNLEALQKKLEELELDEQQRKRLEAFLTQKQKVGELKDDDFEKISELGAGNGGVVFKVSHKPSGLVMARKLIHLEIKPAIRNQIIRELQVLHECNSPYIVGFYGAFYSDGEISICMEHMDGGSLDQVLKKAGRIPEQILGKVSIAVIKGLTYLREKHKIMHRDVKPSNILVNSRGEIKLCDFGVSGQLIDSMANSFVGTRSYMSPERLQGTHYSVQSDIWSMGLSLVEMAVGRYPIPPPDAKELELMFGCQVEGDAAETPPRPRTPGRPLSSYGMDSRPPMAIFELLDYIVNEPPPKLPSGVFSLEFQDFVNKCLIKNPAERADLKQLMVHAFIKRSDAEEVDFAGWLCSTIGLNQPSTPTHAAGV
Excerpt: as §1

PKC beta I = PKC beta I (Homo sapiens (Human), UniProt P05771)
Excerpt: as §1

FLT1 (VEGFR1) = FLT1 (VEGFR1) (Homo sapiens (Human), UniProt P17948)
Excerpt: as §1

FAK2 = FAK2 (Homo sapiens (Human), UniProt Q14289)
Excerpt: as §1

FGFR3 = FGFR3 (Homo sapiens (Human), UniProt P22607)
Chain of FGFR3 (P22607 23-806): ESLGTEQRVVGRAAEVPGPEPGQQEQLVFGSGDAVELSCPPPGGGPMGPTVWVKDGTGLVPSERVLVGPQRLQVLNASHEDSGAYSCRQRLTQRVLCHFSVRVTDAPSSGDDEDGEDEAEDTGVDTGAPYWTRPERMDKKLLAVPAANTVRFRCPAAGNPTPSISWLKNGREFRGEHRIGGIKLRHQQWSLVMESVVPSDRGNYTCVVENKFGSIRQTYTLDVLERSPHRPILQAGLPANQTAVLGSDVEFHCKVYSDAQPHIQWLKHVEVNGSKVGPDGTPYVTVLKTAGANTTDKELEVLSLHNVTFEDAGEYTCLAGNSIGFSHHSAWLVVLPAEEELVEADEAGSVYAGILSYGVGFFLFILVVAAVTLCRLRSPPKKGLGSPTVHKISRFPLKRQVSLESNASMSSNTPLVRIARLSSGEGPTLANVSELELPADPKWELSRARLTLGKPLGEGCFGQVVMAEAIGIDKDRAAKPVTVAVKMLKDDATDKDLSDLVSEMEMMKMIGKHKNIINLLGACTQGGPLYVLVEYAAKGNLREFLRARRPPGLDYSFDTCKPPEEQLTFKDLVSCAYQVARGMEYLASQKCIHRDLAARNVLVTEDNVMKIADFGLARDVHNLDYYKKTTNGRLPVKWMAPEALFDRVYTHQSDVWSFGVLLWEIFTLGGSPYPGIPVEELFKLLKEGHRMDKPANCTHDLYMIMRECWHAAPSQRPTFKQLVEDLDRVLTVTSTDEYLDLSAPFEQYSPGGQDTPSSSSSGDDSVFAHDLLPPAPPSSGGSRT
Excerpt: as §1

ERK1 = ERK1 (Homo sapiens (Human), UniProt P27361)
Excerpt: as §1

ERK2 = ERK2 (Homo sapiens (Human), UniProt P28482)
Excerpt: as §1

MET M1250T = MET M1250T (Homo sapiens (Human), UniProt P08581, M1250T)
Excerpt: as §1

FGFR4 = FGFR4 (Homo sapiens (Human), UniProt P22455)
Excerpt: as §1

PKC epsilon = PKC epsilon (Homo sapiens (Human), UniProt Q02156)
Excerpt: as §1

PKC alpha = PKC alpha (Homo sapiens (Human), UniProt P17252)
Excerpt: as §1

PDGFR beta = PDGFR beta (Homo sapiens (Human), UniProt P09619)
Excerpt: as §1

JNK2 = JNK2 (Homo sapiens (Human), UniProt P45984)
Excerpt: as §1

JNK3 = JNK3 (Homo sapiens (Human), UniProt P53779)
Excerpt: as §1

MEK2 = MEK2 (Homo sapiens (Human), UniProt P36507)
Excerpt: as §1

CDK2 = CDK2 (Homo sapiens (Human), UniProt P24941)
Excerpt: as §1

MAPKAPK2 = MAPKAPK2 (Homo sapiens (Human), UniProt P49137); settings: for % Inhibition at 10 μM: MAPKAPK2
Excerpt: as §1

MET (cMet) = MET (cMet) (Homo sapiens (Human), UniProt P08581)
Excerpt: as §1

PKC eta = PKC eta (Homo sapiens (Human), UniProt P24723)
Excerpt: as §1

PKC iota = PKC iota (Homo sapiens (Human), UniProt P41743)
Excerpt: as §1

JNK1 = JNK1 (Homo sapiens (Human), UniProt P45983)
Chain of JNK1 (P45983 whole entry): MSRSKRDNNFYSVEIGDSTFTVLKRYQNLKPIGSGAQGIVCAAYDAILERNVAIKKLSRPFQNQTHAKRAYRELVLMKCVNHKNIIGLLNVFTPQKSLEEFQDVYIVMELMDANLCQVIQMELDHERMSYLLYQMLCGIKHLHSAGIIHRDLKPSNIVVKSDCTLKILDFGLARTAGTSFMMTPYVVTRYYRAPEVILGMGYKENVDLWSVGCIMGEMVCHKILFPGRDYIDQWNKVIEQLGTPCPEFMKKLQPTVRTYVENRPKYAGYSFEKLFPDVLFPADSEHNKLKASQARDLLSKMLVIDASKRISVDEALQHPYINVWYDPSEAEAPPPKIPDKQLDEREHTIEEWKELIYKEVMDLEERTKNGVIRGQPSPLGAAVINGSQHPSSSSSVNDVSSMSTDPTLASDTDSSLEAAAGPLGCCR
Excerpt: as §1

FGFR3 K650E = FGFR3 K650E (Homo sapiens (Human), UniProt P22607, K650E)
Chain of FGFR3 K650E (P22607 23-806 K650E): as the sequence (P22607 23-806) above, with K628E counted along it
Excerpt: as §1

FLT3 D835Y = FLT3 D835Y (Homo sapiens (Human), UniProt P36888, D835Y)
Description: (§2) In vitro kinase screen and competitive binding assay. […] 11-point Kd curves were determined for hits identified during the initial screen.

FLT3 = FLT3 (Homo sapiens (Human), UniProt P36888)
Description: as §2

With `Nc1cc(Oc2ccc(-c3nnc(Nc4cccc(C(F)(F)F)c4)[nH]3)cc2)ncn1` [Compound 3] the “% Inhibition at 10 μM” value (PAK2) was 2%, the “% Inhibition at 10 μM” value (PKC delta) was −1% and the “% Inhibition at 10 μM” value (PKC beta II) was −3%. For the same compound, the “% Inhibition at 10 μM” value (PKC gamma) was 6%, the “% Inhibition at 10 μM” value (AKT1) was 1% and the “% Inhibition at 10 μM” value (CRAF Y340D Y341D) was 38%. The “% Inhibition at 10 μM” value (KIT) was 74%, the “% Inhibition at 10 μM” value (FGFR1) was 9% and the “% Inhibition at 10 μM” value (FGFR2) was −1%. For the same compound, the “% Inhibition at 10 μM” value (CK2 alpha 1) was −3%, the “% Inhibition at 10 μM” value (IGF1R) was −4% and the “% Inhibition at 10 μM” value (MEK1) was −5%. The “% Inhibition at 10 μM” value (PKC beta I) was −3%, the “% Inhibition at 10 μM” value (FLT1 (VEGFR1)) was 5% and the “% Inhibition at 10 μM” value (FAK2) was −4%. For the same compound, the “% Inhibition at 10 μM” value (FGFR3) was −12%, the “% Inhibition at 10 μM” value (ERK1) was 1% and the “% Inhibition at 10 μM” value (ERK2) was −4%. The “% Inhibition at 10 μM” value (MET M1250T) was 4%, the “% Inhibition at 10 μM” value (FGFR4) was −6% and the “% Inhibition at 10 μM” value (PKC epsilon) was −3%. The “% Inhibition at 10 μM” value (PKC alpha) was −5%, the “% Inhibition at 10 μM” value (PDGFR beta) was 35% and the “% Inhibition at 10 μM” value (JNK2) was −7%. For the same compound, the “% Inhibition at 10 μM” value (JNK3) was −8%, the “% Inhibition at 10 μM” value (MEK2) was −8% and the “% Inhibition at 10 μM” value (CDK2) was 2%. For the same compound, the “% Inhibition at 10 μM” value (MAPKAPK2) was 1%, the “% Inhibition at 10 μM” value (MET (cMet)) was 7% and the “% Inhibition at 10 μM” value (PKC eta) was 1%. The “% Inhibition at 10 μM” value (PKC iota) was −2%, the “% Inhibition at 10 μM” value (JNK1) was −5% and the “% Inhibition at 10 μM” value (FGFR3 K650E) was 4%. For the same compound, the “% Inhibition at 10 μM” value (FLT3 D835Y) was 29% and the “% Inhibition at 10 μM” value (FLT3) was −4%.
In the case of `CSc1nc(N)cc(Oc2ccc(-c3nnc(Nc4cccc(C(F)(F)F)c4)[nH]3)cc2)n1` [Compound 6], the “% Inhibition at 10 μM” value (PAK2) is reported as 1%, the “% Inhibition at 10 μM” value (PKC delta) is reported as −1% and the “% Inhibition at 10 μM” value (PKC beta II) is reported as −4%. The “% Inhibition at 10 μM” value (PKC gamma) was 5%, the “% Inhibition at 10 μM” value (AKT1) was 2% and the “% Inhibition at 10 μM” value (CRAF Y340D Y341D) was 3%. The “% Inhibition at 10 μM” value (KIT) was 28%, the “% Inhibition at 10 μM” value (FGFR1) was 6% and the “% Inhibition at 10 μM” value (FGFR2) was −2%. For the same compound, the “% Inhibition at 10 μM” value (CK2 alpha 1) was 0%, the “% Inhibition at 10 μM” value (IGF1R) was 0% and the “% Inhibition at 10 μM” value (MEK1) was −2%. The “% Inhibition at 10 μM” value (PKC beta I) was 2%, the “% Inhibition at 10 μM” value (FLT1 (VEGFR1)) was −2% and the “% Inhibition at 10 μM” value (FAK2) was −4%. For the same compound, the “% Inhibition at 10 μM” value (FGFR3) was −13%, the “% Inhibition at 10 μM” value (ERK1) was 2% and the “% Inhibition at 10 μM” value (ERK2) was −5%. For the same compound, the “% Inhibition at 10 μM” value (MET M1250T) was −1%, the “% Inhibition at 10 μM” value (FGFR4) was −7% and the “% Inhibition at 10 μM” value (PKC epsilon) was −1%. The “% Inhibition at 10 μM” value (PKC alpha) was −1%, the “% Inhibition at 10 μM” value (PDGFR beta) was 20% and the “% Inhibition at 10 μM” value (JNK2) was −4%. For the same compound, the “% Inhibition at 10 μM” value (JNK3) was −8%, the “% Inhibition at 10 μM” value (MEK2) was −6% and the “% Inhibition at 10 μM” value (CDK2) was 2%. The “% Inhibition at 10 μM” value (MAPKAPK2) was 2%, the “% Inhibition at 10 μM” value (MET (cMet)) was 3% and the “% Inhibition at 10 μM” value (PKC eta) was 3%. For the same compound, the “% Inhibition at 10 μM” value (PKC iota) was 0%, the “% Inhibition at 10 μM” value (JNK1) was −3% and the “% Inhibition at 10 μM” value (FGFR3 K650E) was −1%. For the same compound, the “% Inhibition at 10 μM” value (FLT3 D835Y) was 9% and the “% Inhibition at 10 μM” value (FLT3) was −2%.
`CNC(=O)c1cc(Oc2ccc(NC(=O)Nc3ccc(Cl)c(C(F)(F)F)c3)cc2)ccn1` [sorafenib, reference compound] was tested, and the inhibition at 10 µM (PAK2) was 2%, the inhibition at 10 µM (PKC delta) was -4% and the inhibition at 10 µM (PKC beta II) was -3%. It also gave an inhibition at 10 µM (PKC gamma) of -3%, an inhibition at 10 µM (AKT1) of 2% and an inhibition at 10 µM (CRAF Y340D Y341D) of 95%. It also gave an inhibition at 10 µM (KIT) of 37%, an inhibition at 10 µM (FGFR1) of 44% and an inhibition at 10 µM (FGFR2) of 83%. It also gave an inhibition at 10 µM (CK2 alpha 1) of -3%, an inhibition at 10 µM (IGF1R) of -3% and an inhibition at 10 µM (MEK1) of 0%. The inhibition at 10 µM (PKC beta I) was -1%, the inhibition at 10 µM (FLT1 (VEGFR1)) was 93% and the inhibition at 10 µM (FAK2) was -3%. The inhibition at 10 µM (FGFR3) was 37%, the inhibition at 10 µM (ERK1) was 3% and the inhibition at 10 µM (ERK2) was 0%. The inhibition at 10 µM (MET M1250T) was 3%, the inhibition at 10 µM (FGFR4) was 7% and the inhibition at 10 µM (PKC epsilon) was -2%. It also gave an inhibition at 10 µM (PKC alpha) of -2%, an inhibition at 10 µM (PDGFR beta) of 93% and an inhibition at 10 µM (JNK2) of 10%. It also gave an inhibition at 10 µM (JNK3) of -4%, an inhibition at 10 µM (MEK2) of -4% and an inhibition at 10 µM (CDK2) of 2%. It also gave an inhibition at 10 µM (MAPKAPK2; read-out: % Inhibition at 10 μM) of 2%, an inhibition at 10 µM (MET (cMet)) of 2% and an inhibition at 10 µM (PKC eta) of 2%. It also gave an inhibition at 10 µM (PKC iota) of -2%, an inhibition at 10 µM (JNK1) of -2% and an inhibition at 10 µM (FGFR3 K650E) of 78%. The inhibition at 10 µM (FLT3 D835Y) was 72% and the inhibition at 10 µM (FLT3) was 9%.
